US20150328116A1, “Oral Care Composition Containing Ionic Liquids” (COLGATE-PALMOLIVE COMPANY, priority 2012, published 2015)
Entries after “also recorded” stand apart in the source; their conditions may differ. Like-named read-outs stand apart in the source and are kept apart here.

Legend:
Dental plaque samples = experiment: Dissolution of plaque (visual pellet after centrifugation); conditions: water-insoluble plaque, ionic liquid added, vortex mixed at room temperature, centrifuged at 13,000 g
[1] = system: 3-day old biofilm of artificial mouth consortium of bacteria (A. naeslundii, S. oralis, V. parvula, L. casei, F. nucleatum) and S. mutans; experiment: In vitro removal of a 3-day old biofilm (optical density reduction); format: cell-based; conditions: for Percent Biofilm Removal (BMIM Cationic Series): […] BMIM-based ionic liquids in base prototype mouth rinse of Table 1
A. viscosus [2] = experiment: Growth inhibition of A. viscosus (optical density over time); format: cell-based
Description: DMIM chloride was incorporated into a prototype mouth rinse as illustrated in Table 9. […] The growth inhibition was measured as a change in optical density over time.

A. viscosus [3] = experiment: Short Interval Kill Test (SIKT); format: cell-based; conditions: 0.3, 0.6 and 1 wt % in prototype mouth rinse of Table 9
Source text: SIKT determines the kill effect of a test article at a predetermined exposure time. […] The reaction was neutralized after 30 seconds by adding a neutralizing broth. The reaction mixture was further diluted and plated on MCA (Microbial Count Agar) plates for viable bacterial count.

A. viscosus [4] = experiment: Minimum inhibitory concentration; format: cell-based; conditions: Actinomyces viscosus; 24 hours incubation, optical density at 610 nm
[5] = In-vitro removal of tooth stains / teeth whitening (L*a*b*); design: species or system human; conditions: 1M in prototype whitening mouthwash base (Table 7); teeth soaked one hour
[6] = […] ionic liquid in base prototype mouth rinse of Table 1, 15 minutes, relative to water
[7] = direct comparison between EMIM and BMIM with different anions

| Compound | Percent Removal of a 3-day Oral Biofilm [1, 6] [%] | Percent Biofilm Removed (EMIM vs BMIM comparison) [1, 7] [%] | Percent Removal of a 3-day Oral Biofilm [1] [%] | Percent Biofilm Removal (BMIM Cationic Series) [1] [%] | other results |
| --- | --- | --- | --- | --- | --- |
| CCn1cc[n+](C)c1.[Br-] [EMIM Br, 1-ethyl-3-methylimidazolium bromide] | 48.6 | 48.6 |  |  | plaque dissolution (size of the plaque pellet) (Dental plaque samples): size of the plaque pellet is reduced |
| CCn1cc[n+](C)c1.[Cl-] [EMIM Cl, 1-ethyl-3-methylimidazolium chloride] |  |  | 44.3 |  | Percent Biofilm Removed (EMIM vs BMIM comparison) [1]: 44.3% |
| CCn1cc[n+](C)c1.Cc1ccc(S(=O)(=O)[O-])cc1 [EMIM Tosylate, 1-ethyl-3-methylimidazolium tosylate] | 59.5 |  |  |  |  |
| CCCCCCCCCCn1cc[n+](C)c1.[Cl-] [DMIM Cl, 1-decyl-3-methylimidazolium chloride] | 57.3 |  |  |  | biofilm removal, comparison in words ([1]; comment on Tables 2 and 6, listed as DMIM chloride): significantly more effective in removing biofilm than EMIM chloride and BMIM chloride; also recorded: most effective in removing biofilm; Percent Biofilm Removed (Other Ionic Liquids) ([1]; protocol of Example 2): 57.3%; growth inhibition of A. viscosus (A. viscosus [2]; 0.312 wt % in prototype mouth rinse): Growth inhibition of A.viscosus is maintained; growth inhibition of A. viscosus (A. viscosus [2]; 1 wt % in prototype mouth rinse (Table 9), versus mouthwash containing cetylpyridinium chloride): greater growth inhibition of A. viscosus than a mouthwash containing cetylpyridinium chloride; time to kill A. viscosus (A. viscosus [3]): ≤ 30 s; MIC (A. viscosus [4]): 125 µg/mL |
| 1-butyl-3-methylimidazolium methyl sulfate [BMIM MeSO4] | 53.9 |  |  | 53.9 |  |
| 1,2,3-trimethylimidazolium methyl sulfate [TMIM MeSO4] |  |  | 51.8 |  | Percent Biofilm Removed (Other Ionic Liquids) [1]: 51.8% |
| CC(=O)[O-].CCCCn1cc[n+](C)c1 [BMIM OAc, 1-butyl-3-methylimidazolium acetate] | 55.9 | 55.8 |  | 55.8 |  |
| tris(2-hydroxyethyl)methylammonium sulfate [MTEOA MeSO4] |  |  | 52.8 |  | Percent Biofilm Removed (Other Ionic Liquids) [1]: 52.8% |
| CCCCn1cc[n+](C)c1.[Br-] [BMIM Br, 1-butyl-3-methylimidazolium bromide] | 48.0 | 48.0 |  | 48.0 |  |
| CCCCn1cc[n+](C)c1.[Cl-] [BMIM Cl, 1-butyl-3-methylimidazolium chloride] | 43.8 | 43.8 |  | 43.8 |  |
| C=CCn1cc[n+](C)c1.[Cl-] [AMIM Cl, 1-allyl-3-methylimidazolium chloride] |  |  | 44.8 |  | Percent Biofilm Removed (Other Ionic Liquids) [1]: 44.8%; biofilm removal, comparison in words [1]: effective in removing biofilm |
| COS(=O)(=O)[O-].Cc1cc[n+](C)n1C [MMMPz MeSO4, 1,2,3-trimethylpyrazolium (MMMPZ) methyl sulfate] | 57.8 |  |  |  | Percent Biofilm Removed (Other Ionic Liquids) ([1]; protocol of Example 2): 57.9% |
| 1-ethyl-3-methylimidazolium diethyl phosphate [EMIM diethyl PO4] | 52.7 |  |  |  |  |
| 1-ethyl-3-methylimidazolium ethyl sulfate [EMIM Ethyl SO4] |  |  | 48.1 |  | ΔE [5]: 4.41; ΔL [5]: 3.40; ΔW [5]: −2.99 |
| CC(=O)[O-].CCn1cc[n+](C)c1 [EMIM OAc, 1-ethyl-3-methylimidazolium acetate] | 52.1 | 52.1 |  |  |  |
| 1-butyl-3-methylimidazolium octyl sulfate [BMIM Octyl SO4] | 58.6 |  |  | 58.6 |  |
